Assay results from US9409884B2 (Rigel Pharmaceuticals, Inc., priority 2012, dated 2016).

Biological target: AMPK
Test: AMPK activation, enzyme-linked immunosorbent assay
Type: biochemical
Settings: Table 8, compounds of Table 1
Description: Compounds of Table 1 were assayed for their ability to activate AMPK using an enzyme-linked immunosorbent assay.
Compounds of Table 2 were assayed for their ability to activate AMPK using an enzyme-linked immunosorbent assay.
Compounds of Table 3 were assayed for their ability to activate AMPK using an enzyme-linked immunosorbent assay.
Compounds of Table 4 were assayed for their ability to activate AMPK using an enzyme-linked immunosorbent assay.
Compounds of Table 5 were assayed for their ability to activate AMPK using an enzyme-linked immunosorbent assay.
Compounds of Table 6 were assayed for their ability to activate AMPK using an enzyme-linked immunosorbent assay.
Compounds of Table 7 were assayed for their ability to activate AMPK using an enzyme-linked immunosorbent assay.

EC50 | SMILES
0.1 to 0.5 µM | CC(C)(C)OC(=O)N1CCC(NC(=O)c2cc3ccc(OC4CCN(c5ccc(OC(F)(F)F)cc5)CC4)cc3o2)CC1 [Compound 1-81, tert-butyl 4-(6-(1-(4-(trifluoromethoxy)phenyl)piperidin-4-yloxy)benzofuran-2-carboxamido) piperidine-1-carboxylate]
0.1 to 0.5 µM | O=C(N[C@H]1CCN(Cc2ccc(F)cc2)C1)c1ccc(OC2CCN(c3ccc(C(F)(F)F)cc3)CC2)cn1 [Compound 1-32, (S)-N-(1-(4-fluorobenzyl)pyrrolidin-3-yl)-5-(1-(4-(trifluoromethyl)phenyl)piperidin-4-yloxy) picolinamide]
1 to 5 µM | CN(C(=O)c1cc2cc(OC3CCN(c4ccc(C(F)(F)F)cc4)CC3)ccc2o1)C1CCN(C(=O)OC(C)(C)C)CC1 [Compound 1-102, tert-butyl 4-(N-methyl-5-(1-(4-(trifluoromethyl)phenyl)piperidin-4-yloxy)benzofuran-2-carboxamido) piperidine-1-carboxylate]
< 0.1 µM | N#Cc1ccc(CN2CCC(NC(=O)c3ccc(OC4CCN(c5ccc(C(F)(F)F)cc5)CC4)cn3)CC2)cc1 [Compound 1-4, N-(1-(4-cyanobenzyl)piperidin-4-yl)-5-(1-(4-(trifluoromethyl)phenyl)piperidin-4-yloxy) picolinamide]
> 10 µM | O=C(N[C@@H]1CCNC1)c1cc2cc(OC3CCN(c4ccc(C(F)(F)F)cc4)CC3)ccc2o1 [Compound 1-121, (R)-N-(pyrrolidin-3-yl)-5-(1-(4-(trifluoromethyl)phenyl)piperidin-4-yloxy)benzofuran-2-carboxamide]
0.1 to 0.5 µM | N#Cc1ccc(CN2CCC(NC(=O)c3cc4cc(O[C@@H]5CCN(Cc6ccc(-n7cccn7)cc6)C[C@H]5F)ccc4o3)CC2)cc1 [Compound 1-164, 5-((3,4-trans)-1-(4-(1H-pyrazol-1-yl)benzyl)-3-fluoropiperidin-4-yloxy)-N-(1-(4-cyanobenzyl)piperidin-4-yl)benzofuran-2-carboxamide]
5 to 10 µM | O=C(N[C@@H]1CCNC1)c1ccc(OC2CCN(c3ccc(C(F)(F)F)cc3)CC2)cn1 [Compound 1-24, (R)-N-(pyrrolidin-3-yl)-5-(1-(4-(trifluoromethyl)phenyl)piperidin-4-yloxy) picolinamide]

Same assay, conditions: Table 9, compounds of Table 2

EC50 | SMILES
< 0.5 µM | O=C(NC1CCN(CCc2ccccc2)CC1)c1ccc2[nH]c3c(c2c1)CN(Cc1ccc(C(F)(F)F)cc1)CC3 [Compound 2-14, N-(1-phenethylpiperidin-4-yl)-2-(4-(trifluoromethyl)benzyl)-2,3,4,5-tetrahydro-1H-pyrido[4,3-b]indole-8-carboxamide]
1 to 5 µM | N#Cc1ccc(CN2CCC(NC(=O)c3ccc4[nH]c5c(c4c3)CN(C(=O)OCc3ccccc3)CC5)CC2)cc1 [Compound 2-1, benzyl 8-(1-(4-cyanobenzyl)piperidin-4-ylcarbamoyl)-3,4-dihydro-1H-pyrido[4,3-b]indole-2(5H)-carboxylate]
0.5 to 1 µM | O=C(NC1CCN(C(=O)c2ccncc2)CC1)c1ccc2[nH]c3c(c2c1)CN(Cc1ccc(C(F)(F)F)cc1)CC3 [Compound 2-51, N-(1-isonicotinoylpiperidin-4-yl)-2-(4-(trifluoromethyl)benzyl)-2,3,4,5-tetrahydro-1H-pyrido[4,3-b]indole-8-carboxamide]
1 to 5 µM | N#Cc1cccc(S(=O)(=O)N2CCC(NC(=O)c3ccc4[nH]c5c(c4c3)CN(Cc3ccc(C(F)(F)F)cc3)CC5)CC2)c1 [Compound 2-29, N-(1-(3-cyanophenylsulfonyl)piperidin-4-yl)-2-(4-(trifluoromethyl)benzyl)-2,3,4,5-tetrahydro-1H-pyrido[4,3-b]indole-8-carboxamide]

Same assay, conditions: Table 10, compounds of Table 3

EC50 | SMILES
0.1 to 1 µM | NC(=O)c1ccc(CN2CC3CC2CN3C(=O)c2nc3ccc(OC4CCN(c5ccc(C(F)(F)F)cc5)CC4)cc3o2)cc1 (centres unmarked) [Compound 3-9, 4-((5-(6-(1-(4-(trifluoromethyl)phenyl)piperidin-4-yloxy)benzo[d]oxazole-2-carbonyl)-2,5-diazabicyclo[2.2.1]heptan-2-yl)methyl)benzamide]
1 to 10 µM | CC(C)(C)OC(=O)N1CCC(NC(=O)c2nc3ccc(OC4CCN(c5ccc(C(F)(F)F)cc5)CC4)cc3s2)CC1 [Compound 3-14, tert-butyl 4-(6-(1-(4-(trifluoromethyl)phenyl)piperidin-4-yloxy)benzo[d]thiazole-2-carboxamido)piperidine-1-carboxylate]

Same assay, conditions: Table 11, compounds of Table 4

EC50 | SMILES
< 0.5 µM | O=C(NC1CCN(Cc2ccc(OC(F)(F)F)cc2)C[C@H]1F)c1ccc(C(=O)N2CCN(Cc3ccc(S(=O)(=O)N4CCCC4)cc3)CC2)nc1 (stereo partly drawn) [Compound 4-15, N-((3,4-trans)-3-fluoro-1-(4-(trifluoromethoxy)benzyl)piperidin-4-yl)-6-(4-(4-(pyrrolidin-1-ylsulfonyl)benzyl)piperazine-1-carbonyl)nicotinamide]

Same assay, conditions: Table 12, compounds of Table 5

EC50 | SMILES
< 1 µM | COc1ccc(CN2CCC(NC(=O)c3cccc(OC4CCN(Cc5cnn(-c6ccc(F)cc6)c5)CC4)c3)CC2)cc1 [Compound 5-111, 3-(1-((1-(4-fluorophenyl)-1H-pyrazol-4-yl)methyl)piperidin-4-yloxy)-N-(1-(4-methoxybenzyl)piperidin-4-yl)benzamide]
< 1 µM | N#Cc1ccc(CN2CCC(Oc3ccc(C(=O)NC4CCN(Cc5ccccc5)CC4)cc3F)CC2)cc1 [Compound 5-41, N-(1-benzylpiperidin-4-yl)-4-(1-(4-cyanobenzyl)piperidin-4-yloxy)-3-fluorobenzamide]
< 1 µM | CC(C)(C)C(=O)N1CCC(NC(=O)c2ccc(OC3CCN(c4ccc(C(F)(F)F)cc4)CC3)c(F)c2)CC1 [Compound 5-30, 3-fluoro-N-(1-pivaloylpiperidin-4-yl)-4-(1-(4-(trifluoromethyl)phenyl)piperidin-4-yloxy)benzamide]
1 to 10 µM | CN1CCC(NC(=O)c2ccc(OC3CCN(Cc4ccc(C(F)(F)F)cc4)CC3)c(Cl)c2)CC1 [Compound 5-58, 3-chloro-N-(1-methylpiperidin-4-yl)-4-(1-(4-(trifluoromethyl)benzyl)piperidin-4-yloxy)benzamide]
< 1 µM | O=C(NC1CCN(Cc2ccccc2)CC1)c1ccc(OC2CCN(Cc3ccc(Cl)cc3)CC2)c(F)c1 [Compound 5-64, N-(1-benzylpiperidin-4-yl)-4-(1-(4-chlorobenzyl)piperidin-4-yloxy)-3-fluorobenzamide]
< 1 µM | N#Cc1ccc(CN2CCC(NC(=O)c3cccc(OC4CCN(c5ccc(C#N)cc5)CC4)c3)CC2)cc1 [Compound 5-115, N-(1-(4-cyanobenzyl)piperidin-4-yl)-3-(1-(4-cyanophenyl)piperidin-4-yloxy)benzamide]

Same assay, conditions: Table 13, compounds of Table 6

EC50 | SMILES
< 0.1 µM | CS(=O)(=O)c1ccc(CN2CCN(C(=O)c3ccc4oc(C(=O)NC5CCN(Cc6cccc(C(F)(F)F)c6)CC5)cc4c3)CC2)cc1 [Compound 6-147, 5-(4-(4-(methylsulfonyl)benzyl)piperazine-1-carbonyl)-N-(1-(3-(trifluoromethyl)benzyl)piperidin-4-yl)benzofuran-2-carboxamide]
< 0.1 µM | COc1ccc(CN2CCC(NC(=O)c3cc4cc(C(=O)N5CCN(Cc6ccc(Br)c(S(C)(=O)=O)c6)CC5)ccc4o3)CC2)cc1F [Compound 6-143, 5-(4-(4-bromo-3-(methylsulfonyl)benzyl)piperazine-1-carbonyl)-N-(1-(3-fluoro-4-methoxybenzyl)piperidin-4-yl)benzofuran-2-carboxamide]
< 0.1 µM | N#Cc1ccc(CN2CCC(NC(=O)c3cc4cc(C(=O)N5CCC(C(=O)c6ccc(F)cc6)CC5)ccc4o3)CC2)cc1 [Compound 6-16, N-(1-(4-cyanobenzyl)piperidin-4-yl)-5-(4-(4-fluorobenzoyl)piperidine-1-carbonyl)benzofuran-2-carboxamide]
< 0.1 µM | O=C(Nc1ccc(Oc2ccc(F)cc2)nc1)c1cc2cc(C(=O)N3CCC(Oc4ccc(C(F)(F)F)cc4)CC3)ccc2o1 [Compound 6-26, N-(6-(4-fluorophenoxy)pyridin-3-yl)-5-(4-(4-(trifluoromethyl)phenoxy)piperidine-1-carbonyl) benzofuran-2-carboxamide]

Same assay, conditions: Table 14, compounds of Table 7

EC50 | SMILES
< 1 µM | COc1ccc(C(=O)C2CCN(C(=O)c3cc(C)c(C(=O)NC4CCN(Cc5ccc(C#N)cc5)CC4)cn3)CC2)cc1 [Compound 7-105, N-(1-(4-cyanobenzyl)piperidin-4-yl)-6-(4-(4-methoxybenzoyl)piperidine-1-carbonyl)-4-methylnicotinamide]
< 1 µM | COc1ccc(C(=O)C2CCN(C(=O)c3ccc(C(=O)NC4CCN(Cc5ccc(C#N)c(F)c5)CC4(C)C)cn3)CC2)cc1 (centres unmarked) [Compound 7-86, N-(1-(4-cyano-3-fluorobenzyl)-3,3-dimethylpiperidin-4-yl)-6-(4-(4-methoxybenzoyl)piperidine-1-carbonyl)nicotinamide]
1 to 10 µM | CS(=O)(=O)c1ccc(C(=O)C2CCN(C(=O)c3ccc(C(=O)NC4CCN(Cc5ccc(OC(F)(F)F)cc5)C[C@H]4F)cn3)CC2)cc1 (stereo partly drawn) [Compound 7-61, N-((3,4-trans)-3-fluoro-1-(4-(trifluoromethoxy)benzyl)piperidin-4-yl)-6-(4-(4-(methylsulfonyl)benzoyl)piperidine-1-carbonyl) nicotinamide]
1 to 10 µM | O=C(NC1CCN(Cc2ccc(OC(F)(F)F)cc2)C[C@H]1F)c1ccc(C(=O)N2CCC(Oc3ccc(S(=O)(=O)C4CC4)cc3)CC2)nc1 (stereo partly drawn) [Compound 7-48, 6-(4-(4-(cyclopropylsulfonyl)phenoxy)piperidine-1-carbonyl)-N-((3,4- trans)-3-fluoro-1-(4-(trifluoromethoxy)benzyl)piperidin-4-yl)nicotinamide]
< 1 µM | COc1ccc(C(=O)C2CCN(C(=O)c3ccc(C(=O)NC4CCN(Cc5ccc(OC(F)(F)F)cc5)C[C@@H]4C)cn3)CC2)cc1 (stereo partly drawn) [Compound 7-94, 6-(4-(4-methoxybenzoyl)piperidine-1-carbonyl)-N-((3,4-cis)-3-methyl-1-(4-(trifluoromethoxy)benzyl)piperidin-4-yl)nicotinamide]
